Test results: patent US9890147B2 (BAYER PHARMA AKTIENGESELLSCHAFT, priority 2012, dated 2018)

Columns and labels:
MOLM-13 cells = experiment: Cell proliferation assay (alamarBlue), MOLM-13; format: cell-based; details: Homo sapiens, 96 hours incubation, inhibition of cell proliferation
How it was run: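 IC50 = concentration giving 50% growth inhibition relative to buffer-treated cells, after subtracting baseline fluorescence taken before dosing. Compound applied at 1E-5 to 1E-8 M for 96 h at 37 °C in RPMI1640 with 10% FCS; alamarBlue signal at 530/590 nm.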

BRD4 (BD1) = molecular target: T1, BRD4 (BD1) (Homo sapiens, UniProt O60885); experiment: Binding assay BRD4/acetylated peptide H4 (TR-FRET protein-protein interaction assay)
T1 construct: with relatively long constructs also being possible, preferably amino acids 44-168; made in house; host or cells: E. coli
How it was run: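 Displacement of biotin-Ac-H4 peptide from His6-tagged BRD4(BD1), final usually 10 nM, read as Eu-streptavidin to anti-His-XL665 TR-FRET (665/620 nm). Compounds tested at 11 doses up to 20 μM in duplicate, pH 7.5 HEPES, 22 °C then 4 °C incubation; IC50 by 4-parameter regression.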

| Structure (SMILES) | IC50 (MOLM-13 cells) [nM] | IC50 (BRD4 (BD1)) [nM] |
| --- | --- | --- |
| CNC(=O)N1N=C(c2ccc(-c3cc(O)cc(F)c3)cc2)c2cc(OC)c(OC)cc2CC1C (racemic) [Example 119, (±)-1-(3′-fluoro-5′-hydroxybiphenyl-4-yl)-7,8-dimethoxy-N,4-dimethyl-4,5-diliydro-3H-2,3-benzodiazepine-3-carboxamide] | 410 | 90 |
| CNC(=O)N1N=C(c2ccc(-c3cc(C)cc(F)c3)cc2)c2cc(OC)c(OC)cc2CC1C (racemic) [Example 120, (±)-1-(3′-fluoro-5′-methylbiphenyl-4-yl)-7,8-dimethoxy-N,4-dimethyl-4,5-dihydro-3H-2,3-benzodiazepine-3-carboxamide] | 800 | 190 |
| CNC(=O)N1N=C(c2ccc(-c3cccc(S(=O)(=O)NC)c3)cc2)c2cc(OC)c(OC)cc2CC1C (racemic) [Example 121, (±)-7,8-dimethoxy-N,4-dimethyl-1-[3′-(methylsulphamoyl)biphenyl-4-yl]-4,5-dihydro-3H-2,3-benzodiazepine-3-carboxamide] | 270 | 40 |
| CNC(=O)N1N=C(c2ccc(-c3cncc(F)c3)cc2)c2cc(OC)c(OC)cc2CC1C (racemic) [Example 122, (±)-1-[4-(5-fluoropyridin-3-yl)phenyl]-7,8-dimethoxy-N,4-dimethyl-4,5-dihydro-3H-2,3-benzodiazepine-3-carboxamide] | 660 | 60 |
| CNC(=O)N1N=C(c2ccc(-c3cnccc3F)cc2)c2cc(OC)c(OC)cc2CC1C (racemic) [Example 123, (±)-1-[4-(4-fluoropyridin-3-yl)phenyl]-7,8-dimethoxy-N,4-dimethyl-4,5-dihydro-3H-2,3-benzodiazepine-3-carboxamide] | 630 | 50 |
| CNC(=O)N1N=C(c2ccc(-c3cccnc3C)cc2)c2cc(OC)c(OC)cc2CC1C (racemic) [Example 124, (±)-7,8-dimethoxy-N,4-dimethyl-1-[4-(2-methylpyridin-3-yl)phenyl]-4,5-dihydro-3H-2,3-benzodiazepine-3-carboxamide] | 1070 | 90 |
| CNC(=O)N1N=C(c2ccc(-c3ccnc(OC)c3)cc2)c2cc(OC)c(OC)cc2CC1C (racemic) [Example 125, (±)-7,8-dimethoxy-1-[4-(2-methoxypyridin-4-yl)phenyl]-N,4-dimethyl-4,5-dihydro-3H-2,3-benzodiazepine-3-carboxamide] | 1160 | 70 |
| CNC(=O)N1N=C(c2ccc(-c3cncc(C#N)c3)cc2)c2cc(OC)c(OC)cc2CC1C (racemic) [Example 126, (±)-1-[4-(5-cyanopyridin-3-yl)phenyl]-7,8-dimethoxy-N,4-dimethyl-4,5-dihydro-3H-2,3-benzodiazepine-3-carboxamide] | 740 | 90 |
| CNC(=O)N1N=C(c2ccc(N3CCC(O)CC3)cc2)c2cc(OC)c(OC)cc2CC1C (racemic) [Example 130, (±)-1-[4-(4-hydroxypiperidin-1-yl)phenyl]-7,8-dimethoxy-N,4-dimethyl-4,5-dihydro-3H-2,3-benzodiazepine-3-carboxamide] | 170 | 30 |
| CNC(=O)N1N=C(c2ccc(N3CCN(C(=O)C(C)(C)O)CC3)cc2)c2cc(OC)c(OC)cc2CC1C (racemic) [Example 134, (±)-1-{4-[4-(2-hydroxy-2-methylpropanoyl)-piperazin-1-yl]phenyl}-7,8-dimethoxy-N,4-dimethyl-4,5-dihydro-3H-2,3-benzodiazepine-3-carboxamide] | 360 | 50 |
| CNC(=O)N1N=C(c2ccc(N3CCNC(=O)C3)cc2)c2cc(OC)c(OC)cc2CC1C (racemic) [Example 137, (±)-7,8-dimethoxy-N,4-dimethyl-1-[4-(3-oxopiperazin-1-yl)phenyl]-4,5-dihydro-3H-2,3-benzodiazepine-3-carboxamide] | 490 | 60 |
